Test results taken from publication PMC8042122 (Scientific Reports, 2021).

Test system: F. graminearum CBS185.32 strain
Type: cell-based, Fusarium graminearum
Conditions: for Impact of methyl caps on the activity of TC3 (ability to inhibit TCTB production): 50 µM

Substance	Impact of methyl caps on the activity of TC3 (ability to inhibit TCTB production)	Inhibitory activity on TCTB production
CGNFLKRTC(CH3)ICVKK (disulfide) [TC3-CH3-2Ox, TC3-CH3-2 oxidized, cyclized through the non-capped Cys]	most negative impact	
CGNFLKRTCIC(CH3)VKK (disulfide) [TC3-CH3-3Ox, TC3-CH3-3 oxidized, cyclized through the non-capped Cys]	most negative impact	
CGNFLTRTCICVKK [TC3-K6T, TC3 with Lys6 substituted by Thr]		lowest inhibitory activity
